Source: the NIST ThermoML archive (doi:10.1021/je050399c)

Details: Fluid (supercritical or subcritical phases), Vibrating wire viscometry

N#N [nitrogen]
Details | viscosity [mPa·s]
298.15 K, 100 kPa | 0.01778
298.15 K, 150 kPa | 0.01779
298.15 K, 200 kPa | 0.01781
298.15 K, 250 kPa | 0.01782
298.15 K, 300.1 kPa | 0.01782
298.15 K, 350.1 kPa | 0.01784
298.15 K, 400 kPa | 0.01784
298.15 K, 450.1 kPa | 0.01784
298.15 K, 500.1 kPa | 0.01785
298.15 K, 600.1 kPa | 0.01786
298.15 K, 700.1 kPa | 0.01787
298.15 K, 800.1 kPa | 0.01789
298.15 K, 900.1 kPa | 0.0179
298.15 K, 1000.2 kPa | 0.01792
298.15 K, 1100.2 kPa | 0.01793
298.15 K, 1200.1 kPa | 0.01795
298.15 K, 1300.1 kPa | 0.01796
298.15 K, 1400.1 kPa | 0.01797
298.15 K, 1500.1 kPa | 0.01798
298.15 K, 1599.9 kPa | 0.018
298.15 K, 1700 kPa | 0.01801
298.15 K, 1800.1 kPa | 0.01803
298.15 K, 1899.9 kPa | 0.01805
298.15 K, 2000.4 kPa | 0.01806
298.15 K, 2250 kPa | 0.0181
298.15 K, 2500.3 kPa | 0.01815
298.15 K, 2750.4 kPa | 0.01818
298.15 K, 3000.9 kPa | 0.01822
298.15 K, 3250.3 kPa | 0.01825
298.15 K, 3500.7 kPa | 0.01831
298.15 K, 3750.7 kPa | 0.01835
298.15 K, 4001 kPa | 0.01841
298.15 K, 4250.5 kPa | 0.01846
298.15 K, 4499.8 kPa | 0.01851
298.15 K, 4749.9 kPa | 0.01858
298.15 K, 5000.5 kPa | 0.01861
298.15 K, 5500.9 kPa | 0.01872
298.15 K, 6005.4 kPa | 0.01884
298.15 K, 6500.4 kPa | 0.01897
298.15 K, 7002.5 kPa | 0.01909
298.15 K, 7501.6 kPa | 0.01921
298.15 K, 8000.9 kPa | 0.01934
298.15 K, 8500.9 kPa | 0.01947
298.15 K, 8999.3 kPa | 0.01961
298.15 K, 9499.4 kPa | 0.01973
298.15 K, 10001 kPa | 0.01988
298.15 K, 11005 kPa | 0.02018
298.15 K, 12002 kPa | 0.02047
298.15 K, 13004 kPa | 0.02079
298.15 K, 14004 kPa | 0.0211
298.15 K, 15006 kPa | 0.02142
298.15 K, 16001 kPa | 0.02176
298.15 K, 17010 kPa | 0.02211
298.15 K, 18008 kPa | 0.02247
298.15 K, 19006 kPa | 0.02284
298.15 K, 20005 kPa | 0.02318
298.15 K, 21000 kPa | 0.02354
298.15 K, 22001 kPa | 0.02391
298.15 K, 23008 kPa | 0.02429
298.15 K, 24003 kPa | 0.02466
298.15 K, 25014 kPa | 0.02503
298.15 K, 26005 kPa | 0.02541
298.15 K, 27010 kPa | 0.02581
298.15 K, 28009 kPa | 0.0262
298.15 K, 29013 kPa | 0.02657
298.15 K, 30010 kPa | 0.02695
298.15 K, 31009 kPa | 0.02735
298.15 K, 31995 kPa | 0.02774
298.15 K, 33004 kPa | 0.02814
298.15 K, 33949 kPa | 0.02852
298.15 K, 35027 kPa | 0.02893
323.15 K, 100 kPa | 0.0189
323.15 K, 200.1 kPa | 0.01893
323.15 K, 300.1 kPa | 0.01895
323.15 K, 400.1 kPa | 0.01896
323.15 K, 600.1 kPa | 0.01898
323.15 K, 800.3 kPa | 0.019
323.15 K, 1000.6 kPa | 0.01903
323.15 K, 1500.7 kPa | 0.0191
323.15 K, 2000.7 kPa | 0.01917
323.15 K, 2500.9 kPa | 0.01924
323.15 K, 3000.8 kPa | 0.01932
323.15 K, 3502.6 kPa | 0.0194
323.15 K, 4001.8 kPa | 0.01948
323.15 K, 4500.4 kPa | 0.01957
323.15 K, 5002.2 kPa | 0.01965
323.15 K, 5503.9 kPa | 0.01976
323.15 K, 6003.6 kPa | 0.01983
323.15 K, 6503.6 kPa | 0.01994
323.15 K, 7009.3 kPa | 0.02005
323.15 K, 7502.7 kPa | 0.02015
323.15 K, 8003.1 kPa | 0.02027
323.15 K, 8504.2 kPa | 0.02038
323.15 K, 9006.1 kPa | 0.0205
323.15 K, 9500.4 kPa | 0.02062
323.15 K, 10007 kPa | 0.02073
323.15 K, 11007 kPa | 0.02098
323.15 K, 12006 kPa | 0.02124
323.15 K, 13005 kPa | 0.02151
323.15 K, 14005 kPa | 0.02176
323.15 K, 15005 kPa | 0.02205
323.15 K, 16009 kPa | 0.02233
323.15 K, 17007 kPa | 0.02262
323.15 K, 18000 kPa | 0.02292
323.15 K, 19007 kPa | 0.02323
323.15 K, 19999 kPa | 0.02354
323.15 K, 21010 kPa | 0.02383
323.15 K, 22011 kPa | 0.02417
323.15 K, 23013 kPa | 0.02451
323.15 K, 24004 kPa | 0.02481
323.15 K, 25005 kPa | 0.02511
323.15 K, 26011 kPa | 0.02547
323.15 K, 27000 kPa | 0.02579
323.15 K, 28012 kPa | 0.02613
323.15 K, 29014 kPa | 0.02646
323.15 K, 30014 kPa | 0.02677
323.15 K, 31013 kPa | 0.02714
323.15 K, 31997 kPa | 0.02746
323.15 K, 33007 kPa | 0.02781
323.15 K, 34009 kPa | 0.02814
323.15 K, 35066 kPa | 0.02852
348.15 K, 100.1 kPa | 0.02
348.15 K, 200.1 kPa | 0.02003
348.15 K, 300.1 kPa | 0.02004
348.15 K, 400.2 kPa | 0.02005
348.15 K, 600.5 kPa | 0.02007
348.15 K, 800.6 kPa | 0.02009
348.15 K, 1000.9 kPa | 0.02011
348.15 K, 1501.9 kPa | 0.02017
348.15 K, 2001.6 kPa | 0.02023
348.15 K, 2502 kPa | 0.0203
348.15 K, 3002.6 kPa | 0.02037
348.15 K, 3504.2 kPa | 0.02044
348.15 K, 3999.6 kPa | 0.02051
348.15 K, 4508.2 kPa | 0.02058
348.15 K, 5002.2 kPa | 0.02066
348.15 K, 5502.8 kPa | 0.02074
348.15 K, 6003.4 kPa | 0.02084
348.15 K, 6501.3 kPa | 0.02092
348.15 K, 7002.3 kPa | 0.02101
348.15 K, 7502.5 kPa | 0.0211
348.15 K, 8002.1 kPa | 0.0212
348.15 K, 8501.8 kPa | 0.02129
348.15 K, 9004 kPa | 0.02139
348.15 K, 9498.9 kPa | 0.0215
348.15 K, 10001 kPa | 0.02161
348.15 K, 11007 kPa | 0.02182
348.15 K, 12007 kPa | 0.02203
348.15 K, 13006 kPa | 0.02227
348.15 K, 14001 kPa | 0.0225
348.15 K, 15011 kPa | 0.02274
348.15 K, 16001 kPa | 0.02299
348.15 K, 17002 kPa | 0.02326
348.15 K, 18004 kPa | 0.02351
348.15 K, 19008 kPa | 0.02378
348.15 K, 20006 kPa | 0.02404
348.15 K, 21004 kPa | 0.02431
348.15 K, 22011 kPa | 0.02458
348.15 K, 23006 kPa | 0.02486
348.15 K, 24004 kPa | 0.02515
